Laboratory results taken from patent US11453652B2, “Di-macrocycles” (LUMIPHORE, INC., priority 2013, dated 2022).
{AmC3} = aminopropyl group

Assay: Gel electrophoresis mobility shift assay of metal cation complexation
Assay type: binding
Conditions: 20% polyacrylamide gel, 8M urea; incubated 55° C. 15 minutes, HEPES pH 7.5; compared with no metal cation
Experimental: For use in certain applications, such as acting as a bifunctional chelating agent to attach a radioisotope to a site-directing molecule, it is necessary that the chelator be able to coordinate to the metal ion of interest in a kinetically facile and thermodynamically stable manner. […] In this experiment, a conjugate of 12 with a small (18 base length) DNA oligomer, 15 was treated with a solution containing a metal cation. The electrophoretic mobility of the conjugate on a polyacrylamide gel was then compared with that of the conjugate which was not exposed to the solution of metal cation. […] The gel electrophoretic mobility of the DNA oligomer 14 that was not conjugated to 12, present in the solution of 15, was also compared with and without exposure to the metal cation solution.
C=control, no metal cations. Y, Eu, Tb, Zr, Th=yttrium(III), europium(III), terbium(III), zirconium(IV), and thorium(IV), respectively. Arrow indicates luminescent band observed under hand held ultraviolet lamp.
In particular, a solution of DNA oligomer (3 μL, 33 μM, all concentrations final) was mixed with a solution of metal cation (2 μL, 625 μM) or an equal volume of water, additional water (2.5 μL) and a buffer solution (2.5 μL, 50 mM HEPES, pH 7.5). […]

Row | Substance | electrophoretic mobility following treatment with the metal cation solution
1 | Conjugate 15: conjugate of di-macrocycle 12 with 18-base DNA oligonucleotide 14 (DNA AAGGTCATCCATGACAAC; DNA, backbone and methylation of C not given here; di-macrocycle 12 conjugated) | migrates more slowly
2 | unmodified oligonucleotide: DNA 18-base oligonucleotide 5′-AAGGTCATCCATGACAAC-3′ with 5′-aminopropyl group, not conjugated to 12 (DNA, 5' {AmC3}, backbone and methylation of C not given here) | unaffected
